The source made the active and inactive calls. The calls are words filed in the database; no cut-off is given here.
Tests used:
[1] = Cytotoxicity against mouse HT-22 cells assessed as cell viability at 100 uM incubated for 48 to 72 hrs by MTT assay; type: toxicity, cell-based; conditions: time 48-72 hrs, read-out: Activity
MDA-MB-231 = assay: Antiproliferative activity against human MDA-MB-231 cells assessed as cell viability at 100 uM incubated for 48 to 72 hrs by MTT assay; type: functional; conditions: time 48-72 hrs, read-out: Activity
SJSA-1 = assay: Antiproliferative activity against human SJSA-1 cells assessed as cell viability at 100 uM incubated for 48 to 72 hrs by MTT assay; type: functional; conditions: time 48-72 hrs, read-out: Activity
HepG2 = assay: Antiproliferative activity against human HepG2 cells assessed as cell viability at 100 uM incubated for 48 to 72 hrs by MTT assay; type: functional; conditions: time 48-72 hrs, read-out: Activity
MCF7 = assay: Antiproliferative activity against human MCF7 cells assessed as cell viability at 100 uM incubated for 48 to 72 hrs by MTT assay; type: functional; conditions: time 48-72 hrs, read-out: Activity
[2] = biological target: T1, von Hippel-Lindau disease tumor suppressor/E3 ubiquitin-protein ligase Mdm2 (Homo sapiens, UniProt Q00987+P40337); assay: Protac activity at VHL/MDM2 in human MDA-MB-231 cells assessed as reduction in MDM2 protein level at 80 uM after 48 hrs by Western blotting analysis; type: cell-based
[3] = biological target: T1, von Hippel-Lindau disease tumor suppressor/E3 ubiquitin-protein ligase Mdm2; assay: Protac activity at VHL/MDM2 in human MCF7 cells assessed as reduction in MDM2 protein level at 100 uM after 48 hrs by Western blotting analysis; type: cell-based

T1 sequence (P40337 whole entry, looked up): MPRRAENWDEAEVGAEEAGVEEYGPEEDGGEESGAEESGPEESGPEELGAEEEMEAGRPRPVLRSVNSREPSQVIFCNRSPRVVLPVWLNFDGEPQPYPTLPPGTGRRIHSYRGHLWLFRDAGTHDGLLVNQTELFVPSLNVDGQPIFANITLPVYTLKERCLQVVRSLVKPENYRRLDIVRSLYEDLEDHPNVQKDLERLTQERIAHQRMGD
T1 sequence (Q00987 whole entry, looked up): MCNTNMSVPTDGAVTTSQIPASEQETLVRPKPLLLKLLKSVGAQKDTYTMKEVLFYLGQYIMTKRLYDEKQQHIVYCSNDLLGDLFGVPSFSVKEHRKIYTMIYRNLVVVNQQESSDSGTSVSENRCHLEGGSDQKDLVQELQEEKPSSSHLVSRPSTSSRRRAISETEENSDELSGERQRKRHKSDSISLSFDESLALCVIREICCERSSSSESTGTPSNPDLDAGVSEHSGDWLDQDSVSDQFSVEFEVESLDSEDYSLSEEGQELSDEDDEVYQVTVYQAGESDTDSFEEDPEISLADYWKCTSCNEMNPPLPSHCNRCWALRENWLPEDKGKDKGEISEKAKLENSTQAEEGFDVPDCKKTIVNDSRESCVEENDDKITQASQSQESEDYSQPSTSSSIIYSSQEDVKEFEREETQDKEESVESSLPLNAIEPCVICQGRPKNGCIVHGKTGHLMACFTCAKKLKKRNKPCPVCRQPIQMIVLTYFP

Row | Structure (SMILES) | viability at 100 µM [1] [%] | viability at 100 µM (MDA-MB-231) [%] | viability at 100 µM (SJSA-1) [%] | viability at 100 µM (HepG2) [%] | viability at 100 µM (MCF7) [%] | Activity [2] | Activity [3]
1 | C[C@H](CC(=O)C[C@@H](C)[C@H]1C[C@H](O)[C@@]2(C)C3=C(C(=O)C[C@]12C)[C@@]1(C)CCC(=O)C(C)(C)[C@@H]1C[C@@H]3O)C(=O)NCc1cn(CCOCCOCCOCCOCCNc2cccc3c2C(=O)N(C2CCC(=O)NC2=O)C3=O)nn1 (some centres not stated) | 98.3 | 57.9 | 95.9 | 125 | 57.2 | – | –
2 | C[C@H](CC(=O)C[C@@H](C)[C@H]1C[C@H](O)[C@@]2(C)C3=C(C(=O)C[C@]12C)[C@@]1(C)CCC(=O)C(C)(C)[C@@H]1C[C@@H]3O)C(=O)NCc1cn(CCOCCNc2cccc3c2C(=O)N(C2CCC(=O)NC2=O)C3=O)nn1 (some centres not stated) | 83.2 | 48.6 | 88.2 | 85.8 | 60.7 | – | –
3 | Cc1ncsc1-c1ccc([C@H](C)NC(=O)[C@@H]2C[C@@H](O)CN2C(=O)[C@@H](NC(=O)CCCCc2cn(CCOCCNC(=O)[C@H](C)CC(=O)C[C@@H](C)[C@H]3C[C@H](O)[C@@]4(C)C5=C(C(=O)C[C@]34C)[C@@]3(C)CCC(=O)C(C)(C)[C@@H]3C[C@@H]5O)nn2)C(C)(C)C)cc1 | 97 | 70.8 | 88.2 | 94 | 81.9 | – | –
4 | Cc1ncsc1-c1ccc([C@H](C)NC(=O)[C@@H]2C[C@@H](O)CN2C(=O)[C@@H](NC(=O)CCCc2cn(CCOCCOCCNC(=O)[C@H](C)CC(=O)C[C@@H](C)[C@H]3C[C@H](O)[C@@]4(C)C5=C(C(=O)C[C@]34C)[C@@]3(C)CCC(=O)C(C)(C)[C@@H]3C[C@@H]5O)nn2)C(C)(C)C)cc1 | 101 | 37.7 | 74.1 | 84.6 | 40.8 | – | –
5 | Cc1ncsc1-c1ccc([C@H](C)NC(=O)[C@@H]2C[C@@H](O)CN2C(=O)[C@@H](NC(=O)CCCc2cn(CCCNC(=O)[C@H](C)CC(=O)C[C@@H](C)[C@H]3C[C@H](O)[C@@]4(C)C5=C(C(=O)C[C@]34C)[C@@]3(C)CCC(=O)C(C)(C)[C@@H]3C[C@@H]5O)nn2)C(C)(C)C)cc1 | 89.1 | 99.1 | 81.5 | 90.1 | 87 | – | –
6 | C[C@H](CC(=O)C[C@@H](C)[C@H]1C[C@H](O)[C@@]2(C)C3=C(C(=O)C[C@]12C)[C@@]1(C)CCC(=O)C(C)(C)[C@@H]1C[C@@H]3O)C(=O)NCc1cn(CCOCCOCCOCCNc2cccc3c2C(=O)N(C2CCC(=O)NC2=O)C3=O)nn1 (some centres not stated) | 78.2 | 74.7 | 67 | 91 | 83.4 | – | –
7 | Cc1ncsc1-c1ccc([C@H](C)NC(=O)[C@@H]2C[C@@H](O)CN2C(=O)[C@@H](NC(=O)CCCc2cn(CCOCCOCCOCCNC(=O)[C@H](C)CC(=O)C[C@@H](C)[C@H]3C[C@H](O)[C@@]4(C)C5=C(C(=O)C[C@]34C)[C@@]3(C)CCC(=O)C(C)(C)[C@@H]3C[C@@H]5O)nn2)C(C)(C)C)cc1 | 90.2 | 25.5 | 61.8 | 89.2 | 42.7 | – | –
8 | C[C@H](CC(=O)C[C@@H](C)[C@H]1C[C@H](O)[C@@]2(C)C3=C(C(=O)C[C@]12C)[C@@]1(C)CCC(=O)C(C)(C)[C@@H]1C[C@@H]3O)C(=O)NCCOCCn1cc(CNc2cccc3c2C(=O)N(C2CCC(=O)NC2=O)C3=O)nn1 (some centres not stated) | 99.2 | 73.1 | 92.2 | 110 | 81.8 | – | –
9 | C[C@H](CC(=O)C[C@@H](C)[C@H]1C[C@H](O)[C@@]2(C)C3=C(C(=O)C[C@]12C)[C@@]1(C)CCC(=O)C(C)(C)[C@@H]1C[C@@H]3O)C(=O)NCCOCCOCCOCCn1cc(CNc2cccc3c2C(=O)N(C2CCC(=O)NC2=O)C3=O)nn1 (some centres not stated) | 97.2 | 69.7 | 83.4 | 81.3 | 65.5 | – | –
10 | C[C@H](CC(=O)C[C@@H](C)[C@H]1C[C@H](O)[C@@]2(C)C3=C(C(=O)C[C@]12C)[C@@]1(C)CCC(=O)C(C)(C)[C@@H]1C[C@@H]3O)C(=O)NCc1cn(CCCNc2cccc3c2C(=O)N(C2CCC(=O)NC2=O)C3=O)nn1 (some centres not stated) | 96.7 | 73.8 | 79.6 | 58.4 | 65.9 | – | –
11 | C[C@H](CC(=O)C[C@@H](C)[C@H]1C[C@H](O)[C@@]2(C)C3=C(C(=O)C[C@]12C)[C@@]1(C)CCC(=O)C(C)(C)[C@@H]1C[C@@H]3O)C(=O)NCCCn1cc(CNc2cccc3c2C(=O)N(C2CCC(=O)NC2=O)C3=O)nn1 (some centres not stated) | 94.9 | 56.2 | 75.7 | 116 | 70.5 | – | –
12 | Cc1ncsc1-c1ccc([C@H](C)NC(=O)[C@@H]2C[C@@H](O)CN2C(=O)[C@@H](NC(=O)CCCCc2cn(CCOCCOCCNC(=O)[C@H](C)CC(=O)C[C@@H](C)[C@H]3C[C@H](O)[C@@]4(C)C5=C(C(=O)C[C@]34C)[C@@]3(C)CCC(=O)C(C)(C)[C@@H]3C[C@@H]5O)nn2)C(C)(C)C)cc1 | 95.9 | 31.6 | 77.1 | 86.8 | 41.4 | – | –
13 | Cc1ncsc1-c1ccc([C@H](C)NC(=O)[C@@H]2C[C@@H](O)CN2C(=O)[C@@H](NC(=O)CCCCc2cn(CCCNC(=O)[C@H](C)CC(=O)C[C@@H](C)[C@H]3C[C@H](O)[C@@]4(C)C5=C(C(=O)C[C@]34C)[C@@]3(C)CCC(=O)C(C)(C)[C@@H]3C[C@@H]5O)nn2)C(C)(C)C)cc1 | 102 | 97.5 | 84.6 | 96.5 | 57.9 | – | –
14 | Cc1ncsc1-c1ccc([C@H](C)NC(=O)[C@@H]2C[C@@H](O)CN2C(=O)[C@@H](NC(=O)CCCc2cn(CCOCCNC(=O)[C@H](C)CC(=O)C[C@@H](C)[C@H]3C[C@H](O)[C@@]4(C)C5=C(C(=O)C[C@]34C)[C@@]3(C)CCC(=O)C(C)(C)[C@@H]3C[C@@H]5O)nn2)C(C)(C)C)cc1 | 97 | 41.8 | 58.4 | 105 | 66.9 | – | –
15 | C[C@H](CC(=O)C[C@@H](C)[C@H]1C[C@H](O)[C@@]2(C)C3=C(C(=O)C[C@]12C)[C@@]1(C)CCC(=O)C(C)(C)[C@@H]1C[C@@H]3O)C(=O)NCc1cn(CCOCCOCCNc2cccc3c2C(=O)N(C2CCC(=O)NC2=O)C3=O)nn1 (some centres not stated) | 78.2 | 63.1 | 60.6 | 88.8 | 71.2 | – | –
16 | COc1cccc2c1C(=O)c1c(O)c3c(c(O)c1C2=O)C[C@@](O)(C(=O)CO)C[C@@H]3O[C@H]1C[C@H](N)[C@H](O)[C@H](C)O1 [DOXORUBICIN] | – | 39.4 | 56.2 | 64.3 | 57.5 | – | –
17 | C[C@H](CC(=O)C[C@@H](C)[C@H]1C[C@H](O)[C@@]2(C)C3=C(C(=O)C[C@]12C)[C@@]1(C)CCC(=O)C(C)(C)[C@@H]1C[C@@H]3O)C(=O)NCCOCCOCCOCCOCCn1cc(CNc2cccc3c2C(=O)N(C2CCC(=O)NC2=O)C3=O)nn1 (some centres not stated) | 91.9 | 90.2 | 83 | 130 | 75.9 | – | –
18 | C[C@H](CC(=O)C[C@@H](C)[C@H]1C[C@H](O)[C@@]2(C)C3=C(C(=O)C[C@]12C)[C@@]1(C)CCC(=O)C(C)(C)[C@@H]1C[C@@H]3O)C(=O)O [GANODERIC ACID A] | – | 84.8 | 98.9 | 87.2 | 84.7 | inactive | inactive
19 | CC(=O)N[C@H](C(=O)N1C[C@H](O)C[C@H]1C(=O)N[C@@H](C)c1ccc(-c2scnc2C)cc1)C(C)(C)C | – | – | – | – | – | inactive | inactive
20 | Cc1ncsc1-c1ccc([C@H](C)NC(=O)[C@@H]2C[C@@H](O)CN2C(=O)[C@@H](NC(=O)CCCc2cn(CCOCCOCCOCCOCCNC(=O)[C@H](C)CC(=O)C[C@@H](C)[C@H]3C[C@H](O)[C@@]4(C)C5=C(C(=O)C[C@]34C)[C@@]3(C)CCC(=O)C(C)(C)[C@@H]3C[C@@H]5O)nn2)C(C)(C)C)cc1 | 96.9 | 28.7 | 61.7 | 94.8 | 30.1 | – | –
21 | C[C@H](CC(=O)C[C@@H](C)[C@H]1C[C@H](O)[C@@]2(C)C3=C(C(=O)C[C@]12C)[C@@]1(C)CCC(=O)C(C)(C)[C@@H]1C[C@@H]3O)C(=O)NCCOCCOCCn1cc(CNc2cccc3c2C(=O)N(C2CCC(=O)NC2=O)C3=O)nn1 (some centres not stated) | 98.7 | 71.6 | 85.9 | 105 | 76.8 | – | –
